# According to article PMC7926495, “Preclinical Pharmacokinetics and Biodistribution of Anticancer Dinuclear Palladium(II)-Spermine Complex (Pd2Spm) in Mice” (Pharmaceuticals, 2021):
# Tests used:
# [1] = parameters: species or system Balb/c mice; details: mouse, in vivo; for Tmax: ip
# Method: After drug administration, five animals from each group were euthanized at selected time-points (0.5, 1, 6, 12, 24 and 48 h) with pentobarbital intraperitoneal injection (120 mg/kg) followed by cardiac puncture for blood collection. Blood serum was separated after leaving the blood to coagulate for 30 min at room temperature and centrifugation (at 500× g, and 4 °C for 15 min). […] Both blood serum and serum ultrafiltrate were aliquoted (50 μL) and stored at −80 °C until ICP-MS analysis. Right brain hemisphere, liver, lungs, heart, right kidney, ovaries, abdominal white adipose tissue and abdominal mammary glands were excised at the same time, washed in cold PBS, blotted dry on filter paper and weighed. Solid tissues were freeze-dried (0.016 mBar, −80.8 °C, 48 h; Telstar®, model Cryodos Barcelona, Spain) and stored hermetically sealed at −80 °C until ICP-MS analysis.
# Briefly, 50 μL of blood serum, 50 μL of serum ultrafiltrate and weighed entire freeze-dried organs/tissues (up to 50 mg) were placed into 10 mL polypropylene conical tubes. In the case of liver, for which the weight surpassed 50 mg, the tissue was first pulverized with a Precellys® Evolution tissue homogenizer (Bertin-Instruments, Montigny-le-Bretonneux, France) using 2.8 mm stainless steel beads (two cycles of 10 s at 6000 rpm speed) and accurately weighed (50 mg) in tubes. Samples were digested directly in tubes with 0.9 mL of HNO3 (≥69.0% w/w) plus 0.3 mL of HCl (37% w/w) in a water bath at 90 °C for 1 h. Sample digests were cooled to room temperature, 0.5 mL of a 100 µg/L internal standards (IS) solution was added and the final volume was adjusted to 5 mL with ultrapure water (final concentration of IS = 10 µg/L). Prior to ICP-MS analysis, samples were further diluted 5-fold with a diluent solution (2% HNO3 + 3% HCl + 10 µg/L IS). An iCAP^TM Q (Thermo Fisher Scientific, Bremen, Germany) ICP-MS was used for the determination of Pd and Pt in the obtained solutions. Calibration standards ranging from 0.025 to 100 µg/L were prepared from the 100 mg/L multi-element commercial TraceCERT®, ICH Q3D oral, Standard 2 solution. The IS solution was prepared at 100 µg/L by appropriate dilution of the ICP-MS-200.8-IS-1 solution.
# The mean concentrations of Pd or Pt in serum and serum ultrafiltrate were plotted logarithmically versus time. Non-compartmental analysis was performed on sparse data with 1/Y^2 weighting, which was selected based on the highest correlation coefficients and agreement between observed versus predicted pharmacokinetic parameters. […] The area under the curve (AUC) from time zero to the last time with quantified concentration (AUC0-48h) was calculated by a linear log trapezoidal (linear up log down) method. The AUC from time zero to infinity (AUC0−∞) was extrapolated as AUC0−48 h + C48h/λz, where C48h is the last measured concentration, and λz is the elimination constant rate calculated using linear regression of the terminal portion of the log–linear serum concentration–time curve. The drug half-life (t1/2) was calculated as ln2/λz. The rate of total clearance (CL/F) of the compound was calculated as the administered metal dose divided by the AUC0−∞. The distribution volume based on the terminal phase (Vz/F) was calculated as dose/[λz.AUC0−∞].
# MDA-MB-231 cells = test: In vitro cellular drug uptake/accumulation by ICP-MS; type: cell-based, human; details: 24 h; for dependence of cellular drug uptake on drug concentration in medium: 2-8 µM
# Method: (§1) The in vitro studies were performed on human triple-negative (lack of estrogen receptors, progesterone receptors and HER2 overexpression) breast cancer cell lines MDA-MB-231 and HCC-1143, which were purchased from the Leibniz Institute DSMZ-German Collection of Microorganisms and Cell Cultures GmbH, Germany. MDA-MB-231 were cultured in DMEM-HG cell culture medium supplemented with 10% (v/v) FBS, and HCC-1143 cells were cultured in RPMI-1640 cell culture medium supplemented with 20% (v/v) FBS. Cells were maintained in a sterile environment at 37 °C with a 5% CO2 humidified atmosphere and were routinely tested for mycoplasma contamination.
# (§2) The intracellular Pt and Pd accumulation in MDA-MB-231 and HCC-1143 cells was analyzed using ICP-MS. First, 3 × 10^4/cm^2 cells were seeded in T75 culture flasks and allowed to attach for 24 h. […] The cells were trypsinized, washed twice with ice-cold 0.9% saline solution, and 10^6 cells were pelleted and freeze-dried. The lyophilized cell pellets were digested and analyzed using the same analytical procedure described for the pharmacokinetic study. […] The protein concentration used for the data normalization was determined from identical samples that were prepared in parallel and quantified with the Bradford protein assay.
# HCC-1143 cells = test: as above; type: cell-based, human; details: 24 h; for dependence of cellular drug uptake on drug concentration in medium: 2-8 µM
# Method: as §1, §2
# [2] = mouse, in vivo
# Method: After drug administration, five animals from each group were euthanized at selected time-points (0.5, 1, 6, 12, 24 and 48 h) with pentobarbital intraperitoneal injection (120 mg/kg) followed by cardiac puncture for blood collection. Blood serum was separated after leaving the blood to coagulate for 30 min at room temperature and centrifugation (at 500× g, and 4 °C for 15 min). […] Both blood serum and serum ultrafiltrate were aliquoted (50 μL) and stored at −80 °C until ICP-MS analysis. Right brain hemisphere, liver, lungs, heart, right kidney, ovaries, abdominal white adipose tissue and abdominal mammary glands were excised at the same time, washed in cold PBS, blotted dry on filter paper and weighed. […]
# The mean concentrations of Pd or Pt in serum and serum ultrafiltrate were plotted logarithmically versus time. […] The area under the curve (AUC) from time zero to the last time with quantified concentration (AUC0-48h) was calculated by a linear log trapezoidal (linear up log down) method. […] The drug half-life (t1/2) was calculated as ln2/λz. The rate of total clearance (CL/F) of the compound was calculated as the administered metal dose divided by the AUC0−∞. The distribution volume based on the terminal phase (Vz/F) was calculated as dose/[λz.AUC0−∞].
# plasma proteins = details: mouse, in vivo
# Method: After drug administration, five animals from each group were euthanized at selected time-points (0.5, 1, 6, 12, 24 and 48 h) with pentobarbital intraperitoneal injection (120 mg/kg) followed by cardiac puncture for blood collection. Blood serum was separated after leaving the blood to coagulate for 30 min at room temperature and centrifugation (at 500× g, and 4 °C for 15 min). […] Both blood serum and serum ultrafiltrate were aliquoted (50 μL) and stored at −80 °C until ICP-MS analysis.
# Briefly, 50 μL of blood serum, 50 μL of serum ultrafiltrate and weighed entire freeze-dried organs/tissues (up to 50 mg) were placed into 10 mL polypropylene conical tubes. In the case of liver, for which the weight surpassed 50 mg, the tissue was first pulverized with a Precellys® Evolution tissue homogenizer (Bertin-Instruments, Montigny-le-Bretonneux, France) using 2.8 mm stainless steel beads (two cycles of 10 s at 6000 rpm speed) and accurately weighed (50 mg) in tubes. Samples were digested directly in tubes with 0.9 mL of HNO3 (≥69.0% w/w) plus 0.3 mL of HCl (37% w/w) in a water bath at 90 °C for 1 h. Sample digests were cooled to room temperature, 0.5 mL of a 100 µg/L internal standards (IS) solution was added and the final volume was adjusted to 5 mL with ultrapure water (final concentration of IS = 10 µg/L). […]
# H2AX histone (γH2AX) = tested on: H2AX histone (γH2AX); parameters: method as in PMID 21371266; details: cited from earlier work
# [3] = tested on: albumin / plasma proteins; details: rodents, 3 h post-administration; cited from earlier work
SMILES,concentration of free Pd/Pt in serum ultrafiltrate at 48 h [1] [ng/mL],Tmax [1] [min],dependence of cellular drug uptake on drug concentration in medium (MDA-MB-231 cells),dependence of cellular drug uptake on drug concentration in medium (HCC-1143 cells),higher accumulation of Pd relative to Pt [2] [%],lower accumulation of Pd than Pt (dose-normalized AUC) [2] [%],decrease of fraction bound to plasma proteins at 48 h compared to the preceding period (plasma proteins) [%],phosphorylation of H2AX histone (γH2AX) compared to cisplatin (H2AX histone (γH2AX)),intracellular accumulation compared to cisplatin (MDA-MB-231 cells; equimolar 2-8 µM),intracellular accumulation compared to cisplatin (HCC-1143 cells; equimolar 2-8 µM),bound to albumin (mostly via irreversible covalent bonds) [3] [%]
"N.N.[Cl][Pt][Cl] [Cisplatin, cis-dichlorodiammine platinum(II), reference compound]",4.1,30,increase linearly with drug concentration,increase linearly with drug concentration,–,–,–,–,–,–,–
[Cl][Pd-2]1([Cl])[NH2+]CCC[NH+]1CCCC[NH+]1CCC[NH2+][Pd-2]1([Cl])[Cl] (stereo not drawn) [Pd2Spm],2.3,30,increase linearly with drug concentration,increase linearly with drug concentration,74.2,82.7,3.1,more extensive phosphorylation of H2AX histone,lower intracellular Pd2Spm increase as compared to cisplatin,lower intracellular Pd2Spm increase as compared to cisplatin,–
O=C(O)C(=O)O.[NH-][C@@H]1CCCC[C@H]1[NH-].[Pt+2] [oxaliplatin],–,–,–,–,–,–,–,–,–,–,> 85
